Assay results: US20220288048A1, “PIMAVANSERIN FOR TREATING SCHIZOPHRENIA OR FOR TREATING PSYCHOSIS SECONDARY TO NEURODEGENERATIVE DISORDERS OR DEPRESSIVE DISORDER” (ACADIA Pharmaceuticals Inc., priority 2019, published 2022)

Tested on: adult schizophrenia patients with a persistent inadequate response to their existing antipsychotic therapy
Experiment: 6-week study of pimavanserin or placebo added to existing antipsychotic treatment: efficacy rating scales
Assay type: in vivo, human
Method: The effect of pimavanserin as an adjunctive treatment in adult schizophrenia patients with a persistent inadequate response (i.e., partial responders) to their existing antipsychotic therapy was tested. 396 patients with moderate-to-severe psychotic symptoms were randomized to receive either pimavanserin or placebo added to existing antipsychotic treatment. […] Dosages of background oral antipsychotics could not be changed within four weeks of screening and dosages of long-acting injectables (LAI) could not be changed within 16 weeks of screening. […] Patients were administered a daily dose of pimavanserin or a placebo for six weeks. The dose started at 20 mg and could be adjusted to 34 mg or 10 mg between weeks 1 and 3. The majority of patients (56%) completed the study at the highest dose level. Patients were evaluated at baseline and on a weekly basis according to the clinical rating scale Positive and Negative Symptom Scale (PANSS). The PANSS is a 30-item, 7-point rating system that was developed to cover a range of negative symptoms not adequately measured by the Brief Psychiatric Rating Scale. It has sections that specifically measure positive symptoms, negative symptoms, and general psychopathology in schizophrenic subjects. The PANSS is widely used in trials of antipsychotic drug treatment, and has been formally validated for such use. A subset of 5 of the PANSS factors, the […] factors, were also evaluated. Other clinical rating scales that were assessed were the Clinical Global Impression Scale (CGI), Personal and Social Performance Scale (PSP), drug attitude inventory (DAI-10), Karolinska Sleepiness Scale (KSS), Calgary Depression Scale for Schizophrenia (CDSS), 36-item Short Form Physical Health evaluation ([…]) and 36-item Short Form Mental Health evaluation […].

[1] = FAS population, W6, Missing as non-Rsp
[2] = Full Analysis Set, OC, Week 6, listed as PIM
[3] = Full Analysis Set, added to existing antipsychotic
[4] = Sensitivity: MI in FAS, ANCOVA, W6
[5] = Sensitivity: MI in RAND, ANCOVA, W6
[6] = Sensitivity: OC in PP, MMRM, W6

Q: For `CC(C)COc1ccc(CNC(=O)N(Cc2ccc(F)cc2)C2CCN(C)CC2)cc1` [Pimavanserin, N-(4-Fluorophenylmethyl)-N-(1-methylpiperidin-4-yl)-N′-(4-(2-methylpropyloxy)phenylmethyl)carbamide], which “CGI-I 1 or 2 Rsp, (%)” value [1] is on record?
A: Its value is “(35.2) %”.

Q: And the “CGI-I 1 or 2 Rsp, Diff in % (PIM − PBO)” value [1]?
A: Its value is 2.1%.

Q: What about the “PANSS >= 20% Rsp, (%)” value [1] of the same compound?
A: Its value is “(56.5) %”.

Q: And the “PANSS >= 20% Rsp, Diff in % (PIM − PBO)” value [1]?
A: Its value is 5.9%.

Q: And the “PANSS >= 30% Rsp, (%)” value [1]?
A: The value was “(36.8) %”.

Q: What about the “PANSS >= 30% Rsp, Diff in % (PIM − PBO)” value [1] of the same compound?
A: Its value is 2.6%.

Q: And the “CGI-I 1 or 2 Rsp, (%)” value (FAS population, W6, OC)?
A: Its value is “(39.3) %”.

Q: What about the “CGI-I 1 or 2 Rsp, Diff in % (PIM − PBO)” value (FAS population, W6, OC) of the same compound?
A: Its value is 4.9%.

Q: What about the “CGI-I no Chg or Worsened, (%)” value (FAS population, W6, OC) of the same compound?
A: The value was “(27.2) %”.

Q: And the “CGI-I no Chg or Worsened, Diff in % (PIM − PBO)” value (FAS population, W6, OC)?
A: The value was −0.9%.

Q: What about the “PANSS >= 20% Rsp, (%)” value (FAS population, W6, OC) of the same compound?
A: The value was “(63.0) %”.

Q: And the “PANSS >= 20% Rsp, Diff in % (PIM − PBO)” value (FAS population, W6, OC)?
A: The value was 10.6%.

Q: And the “PANSS >= 30% Rsp, (%)” value (FAS population, W6, OC)?
A: Its value is “(41.0) %”.

Q: What about the “PANSS >= 30% Rsp, Diff in % (PIM − PBO)” value (FAS population, W6, OC) of the same compound?
A: The value was 5.6%.

Q: What about the “CGI-S score, Change from Baseline to Week 6, Mean (SE)” value (Full Analysis Set) of the same compound?
A: Its value is −0.8 (0.06).

Q: And the “PANSS Marder negative factor score, Change from Baseline to Week 6, Mean (SE)” value (Full Analysis Set)?
A: The value was −3.3 (0.31).

Q: What about the “PANSS Marder negative factor score, Week 6, Mean (SE)” value (Full Analysis Set) of the same compound?
A: Its value is 19.2 (0.38).

Q: What about the “PANSS negative symptoms scale sub-score, Change from Baseline to Week 6, Mean (SE)” value (Full Analysis Set) of the same compound?
A: The value was −2.8 (0.28).

Q: And the “PANSS negative symptoms scale sub-score, Week 6, Mean (SE)” value (Full Analysis Set)?
A: Its value is 20.3 (0.35).

Q: What about the “CGI-S score, Diff in MMRM LSM (SE), pimavanserin − placebo” value (Full Analysis Set, OC, Week 6) of the same compound?
A: Its value is −0.1 (0.08).

Q: What about the “CGI-S score, Effect Size (Cohen's d)” value (Full Analysis Set, OC, Week 6) of the same compound?
A: Its value is 0.200.

Q: What about the “PANSS Marder negative factor score, Diff in MMRM LSM (SE), pimavanserin − placebo” value (Full Analysis Set, OC, Week 6) of the same compound?
A: The value was −0.9 (0.41).

Q: What about the “PANSS Marder negative factor score, Effect Size (Cohen's d)” value (Full Analysis Set, OC, Week 6) of the same compound?
A: Its value is 0.218.

Q: What about the “PANSS negative symptoms scale sub-score, Diff in MMRM LSM (SE), pimavanserin − placebo” value (Full Analysis Set, OC, Week 6) of the same compound?
A: Its value is −0.7 (0.37).

Q: What about the “PANSS negative symptoms scale sub-score, Effect Size (Cohen's d)” value (Full Analysis Set, OC, Week 6) of the same compound?
A: Its value is 0.206.

Q: And the “PANSS total score, Diff in MMRM LSM (SE), pimavanserin − placebo” value (Full Analysis Set, OC, Week 6)?
A: Its value is −2.1 (1.24).

Q: What about the “PANSS total score, Effect Size (Cohen's d)” value (Full Analysis Set, OC, Week 6) of the same compound?
A: Its value is 0.173.

Q: And the “CGI-S score, Diff in MMRM LSM (SE), pimavanserin − placebo” value [2]?
A: Its value is −0.1.

Q: What about the “CGI-S score, Effect Size (Cohen's d)” value [2] of the same compound?
A: Its value is 0.20.

Q: And the “PANSS Marder negative factor score, Diff in MMRM LSM (SE), pimavanserin − placebo” value [2]?
A: The value was −0.9.

Q: What about the “PANSS Marder negative factor score, Effect Size (Cohen's d)” value [2] of the same compound?
A: The value was 0.22.

Q: And the “PANSS negative symptoms scale sub-score, Diff in MMRM LSM (SE), pimavanserin − placebo” value [2]?
A: Its value is −0.7.

Q: What about the “PANSS negative symptoms scale sub-score, Effect Size (Cohen's d)” value [2] of the same compound?
A: Its value is 0.21.

Q: And the “PANSS total score, Diff in MMRM LSM (SE), pimavanserin − placebo” value [2]?
A: Its value is −2.1.

Q: What about the “PANSS total score, Effect Size (Cohen's d)” value [2] of the same compound?
A: The value was 0.17.

Q: And the “CGI-S score, Week 6, Mean (SE)” value [3]?
A: The value was 3.8 (0.07).

Q: What about the “PANSS total score, Change from Baseline to Week 6, Mean (SE)” value [3] of the same compound?
A: Its value is −15.3 (0.93).

Q: What about the “PANSS total score, Week 6, Mean (SE)” value [3] of the same compound?
A: The value was 72.7 (1.04).

Q: And the “Positive or negative symptoms, difference between treatment groups” value (North America)?
A: Its value is “No significant differences”.

Q: And the “Clinical Global Impressions-Severity, LS Mean Change at Week 6” value (North America subgroup)?
A: The value was −0.7.

Q: And the “PANSS Total Score, LS Mean Change at Week 6” value (North America subgroup)?
A: The value was −14.2.

Q: What about the “Clinical Global Impressions-Severity, Cohen's d Effect Size” value (North America subgroup, Week 6) of the same compound?
A: The value was −0.144.

Q: And the “Clinical Global Impressions-Severity, LS Mean (SE) Difference” value (North America subgroup, Week 6)?
A: The value was 0.1 (0.15).

Q: And the “PANSS Total Score, Cohen's d Effect Size” value (North America subgroup, Week 6)?
A: Its value is −0.229.

Q: And the “PANSS Total Score, LS Mean (SE) Difference” value (North America subgroup, Week 6)?
A: Its value is 2.6 (2.74).

Q: And the “PANSS Total, LSM Change from Baseline at W6” value (“PANSS Total, LSM Change” below) (Sensitivity: MI in FAS, ANCOVA)?
A: The value was −15.3.

Q: What about the “PANSS Total, Effect Size” value [4] of the same compound?
A: Its value is 0.16.

Q: What about the “PANSS Total, Treatment group Comparison (PIM-PBO) LSM” value (from here on “PANSS Total … (PIM-PBO) LSM”) [4] of the same compound?
A: Its value is −1.9.

Q: And the “PANSS Total, LSM Change” value (Sensitivity: MI in RAND, ANCOVA)?
A: The value was −15.2.

Q: What about the “PANSS Total, Effect Size” value [5] of the same compound?
A: Its value is 0.15.

Q: And the “PANSS Total … (PIM-PBO) LSM” value [5]?
A: Its value is −1.9.

Q: And the “PANSS Total, LSM Change” value (Sensitivity: OC ANCOVA)?
A: Its value is −15.3.

Q: What about the “PANSS Total, Effect Size” value (Sensitivity: OC ANCOVA, W6) of the same compound?
A: The value was 0.16.

Q: What about the “PANSS Total … (PIM-PBO) LSM” value (Sensitivity: OC ANCOVA, W6) of the same compound?
A: The value was −1.9.

Q: And the “PANSS Total, LSM Change” value (Sensitivity: OC in PP, MMRM)?
A: The value was −15.6.

Q: And the “PANSS Total, Effect Size” value [6]?
A: The value was 0.19.

Q: What about the “PANSS Total … (PIM-PBO) LSM” value [6] of the same compound?
A: Its value is −2.3.
